Here are results for 40 compounds from ChEMBL document CHEMBL1147807, “Identification of 2-acylaminothiophene-3-carboxamides as potent inhibitors of FLT3” (Bioorg Med Chem Lett, 2006).

For assay [1], the system named is MV4-11. Kind of assay: Antiproliferative activity against human MV4-11 cells.
Assay [2] concerns the target T1, Receptor-type tyrosine-protein kinase FLT3 (Homo sapiens, UniProt P36888).
T1 sequence (P36888 whole entry): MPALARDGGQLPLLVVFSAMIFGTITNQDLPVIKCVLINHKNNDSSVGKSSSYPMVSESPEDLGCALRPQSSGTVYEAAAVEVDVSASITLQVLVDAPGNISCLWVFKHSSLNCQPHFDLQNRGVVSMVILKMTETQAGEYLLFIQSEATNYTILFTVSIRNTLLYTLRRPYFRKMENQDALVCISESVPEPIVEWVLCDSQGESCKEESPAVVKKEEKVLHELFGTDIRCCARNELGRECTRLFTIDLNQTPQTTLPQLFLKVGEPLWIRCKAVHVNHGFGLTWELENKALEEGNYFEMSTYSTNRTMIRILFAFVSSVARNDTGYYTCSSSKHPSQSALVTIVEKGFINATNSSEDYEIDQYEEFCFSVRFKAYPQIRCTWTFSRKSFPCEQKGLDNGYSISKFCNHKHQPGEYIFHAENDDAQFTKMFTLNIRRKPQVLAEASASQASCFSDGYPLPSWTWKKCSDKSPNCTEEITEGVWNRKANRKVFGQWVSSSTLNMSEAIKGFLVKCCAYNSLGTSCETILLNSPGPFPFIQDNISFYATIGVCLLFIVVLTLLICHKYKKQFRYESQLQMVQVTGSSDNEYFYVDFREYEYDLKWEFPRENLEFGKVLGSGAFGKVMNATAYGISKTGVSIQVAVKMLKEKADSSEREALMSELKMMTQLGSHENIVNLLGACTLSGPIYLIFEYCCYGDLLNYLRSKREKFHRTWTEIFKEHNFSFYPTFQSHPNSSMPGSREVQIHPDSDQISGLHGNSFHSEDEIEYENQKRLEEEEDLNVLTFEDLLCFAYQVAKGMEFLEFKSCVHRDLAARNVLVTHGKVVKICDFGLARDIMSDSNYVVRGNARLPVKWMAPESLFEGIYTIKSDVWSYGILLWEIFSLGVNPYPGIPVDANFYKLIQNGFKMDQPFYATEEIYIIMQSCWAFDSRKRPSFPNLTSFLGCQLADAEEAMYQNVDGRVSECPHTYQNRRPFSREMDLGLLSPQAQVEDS
Kind of assay: Inhibition of FLT3.

On to `COc1ccc(C(=O)Nc2sc(C)c(C)c2C(N)=O)cc1OC`, for which, in assay [1], it took 330 nM to reach half-maximal inhibition (IC50).
`COc1cccc(C(=O)Nc2sc3c(c2C(N)=O)CCCC3)c1` registered an IC50 in assay [1] of 1500 nM.
On the same count and under the same terms, then `CC(C)c1ccc(/C=C/C(=O)Nc2sc3c(c2C(N)=O)CCCC3)cc1`, with 2700 nM; and `NC(=O)c1c(NC(=O)/C=C/c2ccccc2)sc2c1CCCC2`, with 530 nM; and `Cc1ccc(C(=O)Nc2sc3c(c2C(N)=O)CCCC3)cc1C`, with 710 nM.
In assay [1], `COc1ccc(/C=C/C(=O)Nc2sc3c(c2C(N)=O)CCCC3)cc1OC` came in with an IC50 of 2000 nM.
Regarding `NC(=O)c1c(NC(=O)CSc2ccccc2)sc2c1CCCC2`, the IC50 in assay [1] is 3800 nM; in assay [2], above 10000 nM.
The matching figures for `NC(=O)c1c(NC(=O)c2cccnc2)sc2c1CCCC2`: 2000 nM and 1100 nM.
With `NC(=O)c1c(NC(=O)c2ccc(Cl)cc2)sc2c1CCCC2`, the IC50 in assay [1] is 1400 nM.
Take `NC(=O)c1c(NC(=O)c2ccccc2Cl)sc2c1CCCC2`: the IC50 in assay [2] was above 10000 nM.
With `NC(=O)c1c(NC(=O)c2cccc(Cl)c2)sc2c1CCCC2`, in assay [1], the 50% inhibitory concentration (IC50) was 2200 nM.
Compound `CC(=O)Nc1sc2c(c1C(N)=O)CCCC2` displayed an IC50 in assay [2] of 2000 nM.
In the case of `Cc1cccc(C(=O)Nc2sc3c(c2C(N)=O)CCCC3)c1`, in assay [1], half-maximal inhibition (IC50) was put at 3200 nM.
In assay [2], `COc1cc(C(=O)Nc2sc3c(c2C(N)=O)CCCC3)cc(OC)c1OC` displayed an IC50 above 10000 nM.
With `NC(=O)c1c(NC(=O)c2ccccn2)sc2c1CCCC2`, in assay [1], the 50% inhibitory concentration (IC50) was 350 nM.
In turn, `COc1ccc(C(=O)Nc2sc3c(c2C(N)=O)CCCCCC3)cc1OC` had a half-inhibitory concentration (IC50) in assay [2] above 100000 nM.
In assay [2], `NC(=O)c1c(NC(=O)COc2ccccc2)sc2c1CCCC2` showed an IC50 above 10000 nM.
The compound `COc1ccc(CCC(=O)Nc2sc3c(c2C(N)=O)CCCC3)cc1` returned an IC50 in assay [1] above 10000 nM.
The same measure, in the same setting: then `COc1ccc(C(=O)Nc2sccc2C(N)=O)cc1OC`, with 2400 nM.
Consider `NC(=O)c1c(NC(=O)c2ccncc2)sc2c1CCCC2`, for which the figures for the concentration for half-maximal inhibition (IC50) in assay [1] and in assay [2] were 2100 nM and 110 nM, respectively.
`Cc1ccc(C(=O)Nc2sc3c(c2C(N)=O)CCCC3)cc1` returned an IC50 in assay [1] of 450 nM.
For the compound `NC(=O)c1c(NC(=O)c2ccc(Oc3ccccc3)cc2)sc2c1CCCC2`, in assay [2], the IC50 was above 10000 nM.
In the case of `NC(=O)c1c(NC(=O)C2CC2)sc2c1CCCC2`, the IC50 in assay [1] turned out to be 1200 nM; in assay [2], 1300 nM.
The matching figures for `NC(=O)c1c(NC(=O)c2ccccc2)sc2c1CCCC2`: above 10000 nM and 360 nM.
Consider `NC(=O)c1c(NC(=O)C2CCCCC2)sc2c1CCCC2`, for which the IC50 in assay [2] is above 10000 nM.
Compound `NC(=O)c1c(NC(=O)/C=C/c2ccco2)sc2c1CCCC2` came in with an IC50 in assay [1] of 480 nM.
Still for that read-out and setting: to `NC(=O)c1c(NC(=O)c2ccc3c(c2)OCO3)sc2c1CCCC2` belongs 890 nM.
With `COc1ccc(/C=C/C(=O)Nc2sc3c(c2C(N)=O)CCCC3)cc1`, the 50% inhibitory concentration (IC50) in assay [1] is 1800 nM; in assay [2], 250 nM.
Take `NC(=O)c1c(NC(=O)c2ccc(Br)cc2)sc2c1CCCC2`: in assay [1], 1500 nM corresponded to half-maximal inhibition (IC50).
`CC(C)(C)c1ccc(C(=O)Nc2sc3c(c2C(N)=O)CCCC3)cc1` had a concentration for half-maximal inhibition (IC50) in assay [1] of 1600 nM.
As for `COc1ccc(C(=O)Nc2sc3c(c2C(N)=O)CCCC3)cc1`, the midpoint of inhibition in assay [1], the IC50, lay at 1300 nM.
For `Cc1ccc(/C=C/C(=O)Nc2sc3c(c2C(N)=O)CCCC3)o1`, the IC50 in assay [1] stood at 10000 nM.
Compound `COc1cc(OC)cc(C(=O)Nc2sc3c(c2C(N)=O)CCCC3)c1` registered an IC50 in assay [1] above 10000 nM.
The same measure, in the same setting: to `CC(=O)c1ccc(C(=O)Nc2sc3c(c2C(N)=O)CCCC3)cc1` belongs 1800 nM.
In assay [2], `CC(C)C(=O)Nc1sc2c(c1C(N)=O)CCCC2` gave an IC50 above 10000 nM.
Turning to `COc1ccc(C(=O)Nc2sc3c(c2C(N)=O)CCC3)cc1OC`, in assay [1], the half-maximal inhibitory concentration (IC50) came out at 410 nM.
Turning to `NC(=O)c1c(NC(=O)c2ccc(-c3ccccc3)cc2)sc2c1CCCC2`, in assay [2], the IC50 is above 10000 nM.
In assay [1], `NC(=O)c1c(NC(=O)Cc2ccccc2)sc2c1CCCC2` registered an IC50 above 10000 nM.
In assay [2], `COc1ccccc1C(=O)Nc1sc2c(c1C(N)=O)CCCC2` gave an IC50 above 10000 nM.
The compound `NC(=O)c1c(NC(=O)c2ccco2)sc2c1CCCC2` returned an IC50 in assay [1] of 1500 nM.
